# Test results published in patent publication US9801901B2, “Alginate oligomers for use in overcoming multidrug resistance in bacteria” (priority 2009, dated 2017).
# Like-named read-outs stand apart in the source and are kept apart here. Marks after values point to notes of the source that are not given here.
# Tests used:
# [1] = test system: Pseudomonas aeruginosa CFA 24-1, clinical mucoid strain (R80); test: MIC assay, CAMHB with alginate oligomer, no visible growth; format: cell-based; settings: Pseudomonas aeruginosa, Table 1, R80, read-out: MIC
# [2] = test system: V9 (Egypt) Acinetobacter baumannii; test: as above; format: cell-based; settings: Table 5, V9 MDR Acin. baum
# [3] = test system: V10 (Egypt) Acinetobacter lwoffii; test: as above; format: cell-based; settings: Table 5, V10 MDR Acin. lwoff
# V11 5702 (Wales) E. coli = test: as above; format: cell-based; settings: Table 5, V11 MDR E.coli
# [4] = test system: V23 1322 Burkholderia cepacia; test: as above; format: cell-based
# [5] = test system: strains of Klebsiella pneumoniae displaying MDR phenotypes; test: MIC-assay, Mueller-Hinton broth with G-block alginate, 384-well, OD600 (Table 10); format: cell-based; settings: read-out: MIC
# From the text: Minimum inhibitory concentration (MICs) of different antibiotics for strains of Klebsiella pneumoniae displaying MDR phenotypes in the presence of varying concentrations of OligoCF-5/20 (0-10%). (MIC values are expressed in μg ml^−1).
# MDR Providencia stuartii = test: MIC-assay, Mueller-Hinton broth with G-block alginate, 384-well, OD600 (Table 11); format: cell-based; settings: Providencia stuartii (IR57 India, V7) MDR
# From the text: (§1) Minimum inhibitory concentration (MICs) of different antibiotics for strains of E. coli and Providencia stuartii displaying MDR phenotypes in the presence of varying concentrations of OligoCF-5/20 (0-10%). (MIC values are expressed in μg ml^−1).
# [6] = test system: strains of E. coli displaying MDR phenotypes; test: as above; format: cell-based; settings: Escherichia coli, Escherichia coli (5702, Wales, V11) MDR, read-out: MIC
# From the text: as §1
# [7] = test system: Staphylococcus aureus (MRSA) U50; test: MIC-assay, Mueller-Hinton broth with G-block alginate, 384-well, OD600 (Table 12); format: cell-based; settings: MRSA 1040s, U50 MDR, read-out: MIC
# From the text: (§2) Minimum inhibitory concentration (MICs) of different antibiotics for strains of Streptococcus oralis and Staphylococcus aureus (MRSA) displaying MDR phenotypes in the presence of varying concentrations of OligoCF-5/20 (0-10%). (MIC values are expressed in μg ml^−1).
# Streptococcus oralis = test: as above; format: cell-based; settings: Streptococcus oralis (5610, V17) MDR, read-out: MIC
# From the text: as §2
# [8] = test system: Burkholderia cepacia (1322, V23); test: MIC-assay, Mueller-Hinton broth with G-block alginate, 384-well, OD600
# [9] = test system: Acinetobacter baumannii (MDR ACB, Libya, V4); test: as above
# [10] = Klebsiella pneumoniae (5712, Wales, V12) MDR, G-block (OligoCF-5/20) 0%
# [11] = Klebsiella pneumoniae (5712, Wales, V12) MDR, G-block (OligoCF-5/20) 2%
# [12] = Klebsiella pneumoniae (5712, Wales, V12) MDR, G-block (OligoCF-5/20) 6%
# [13] = Klebsiella pneumoniae (5712, Wales, V12) MDR, G-block (OligoCF-5/20) 10%
# [14] = Klebsiella pneumoniae (IR25, India, V6) MDR, G-block (OligoCF-5/20) 0%
# [15] = Klebsiella pneumoniae (IR25, India, V6) MDR, G-block (OligoCF-5/20) 2%
# [16] = Klebsiella pneumoniae (IR25, India, V6) MDR, G-block (OligoCF-5/20) 6%
# [17] = Klebsiella pneumoniae (IR25, India, V6) MDR, G-block (OligoCF-5/20) 10%
# [18] = Klebsiella pneumoniae (K3, India, V8) MDR, G-block (OligoCF-5/20) 0%
# [19] = Klebsiella pneumoniae (K3, India, V8) MDR, G-block (OligoCF-5/20) 2%
# [20] = Klebsiella pneumoniae (K3, India, V8) MDR, G-block (OligoCF-5/20) 6%
# [21] = Klebsiella pneumoniae (K3, India, V8) MDR, G-block (OligoCF-5/20) 10%
# [22] = Table 8, G-block (OligoCF-5/20) 0%
# [23] = Table 8, G-block (OligoCF-5/20) 2%
# [24] = Table 8, G-block (OligoCF-5/20) 6%
# [25] = Table 8, G-block (OligoCF-5/20) 10%
# [26] = Table 9, G-block (OligoCF-5/20) 0%
# [27] = Table 9, G-block (OligoCF-5/20) 2%
# [28] = Table 9, G-block (OligoCF-5/20) 6%
# [29] = Table 9, G-block (OligoCF-5/20) 10%
compound,measurement,setting,value
CN(C)[C@@H]1C(O)=C(C(N)=O)C(=O)[C@@]2(O)C(O)=C3C(=O)c4c(O)cccc4[C@@](C)(O)[C@H]3[C@H](O)[C@@H]12 [Oxytetracycline],MIC,[1]; OligoCF-5/20 0G,8 µg/mL
same,MIC,[1]; OligoCF-5/20 +2% G,8 µg/mL
same,MIC,[1]; OligoCF-5/20 +6% G,4 µg/mL
same,MIC,[1]; OligoCF-5/20 +10% G,4 µg/mL
same,MIC,"[2]; Acinetobacter baumannii, OligoCF-5/20 0G, read-out: MIC",2 µg/mL
same,MIC,[2]; OligoCF-5/20 +2% G,2 µg/mL
same,MIC,[2]; OligoCF-5/20 +6% G,1^† μg/ml
same,MIC,[2]; OligoCF-5/20 +10% G,4^‡ μg/ml
same,MIC,"[3]; Acinetobacter lwoffii, OligoCF-5/20 0G, read-out: MIC",0.5 µg/mL
same,MIC,[3]; OligoCF-5/20 +2% G,0.5 µg/mL
same,MIC,[3]; OligoCF-5/20 +6% G,0.5 µg/mL
same,MIC,[3]; OligoCF-5/20 +10% G,0.25^† μg/ml
same,MIC,"V11 5702 (Wales) E. coli; Escherichia coli, OligoCF-5/20 0G, read-out: MIC",0.5 µg/mL
same,MIC,V11 5702 (Wales) E. coli; OligoCF-5/20 +2% G,1^‡ μg/ml
same,MIC,V11 5702 (Wales) E. coli; OligoCF-5/20 +6% G,0.5 µg/mL
same,MIC,V11 5702 (Wales) E. coli; OligoCF-5/20 +10% G,0.5 µg/mL
same,MIC,"[4]; Burkholderia cepacia, Table 5, V23 MDR Burk cep, OligoCF-5/20 0G, read-out: MIC",256 µg/mL
same,MIC,"[4]; Burkholderia cepacia, Table 6, V23, Experiment 1 (18-03-10), OligoCF-5/20 0G, read-out: MIC",> 256 µg/mL
same,MIC,"[4]; Burkholderia cepacia, Table 6, V23, Experiment 2 (18-03-10), OligoCF-5/20 0G, read-out: MIC",> 256 µg/mL
same,MIC,"[4]; Burkholderia cepacia, Table 6, V23, Experiment 3 (19-03-10), OligoCF-5/20 0G, read-out: MIC",> 256 µg/mL
same,MIC,"[4]; Table 5, V23 MDR Burk cep, OligoCF-5/20 +2% G",128^† μg/ml
same,MIC,"[4]; Table 5, V23 MDR Burk cep, OligoCF-5/20 +6% G",128^† μg/ml
same,MIC,"[4]; Table 5, V23 MDR Burk cep, OligoCF-5/20 +10% G",32^† μg/ml
same,MIC,"[4]; Table 6, V23, Experiment 1 (18-03-10), OligoCF-5/20 +2% G",256^† μg/ml
same,MIC,"[4]; Table 6, V23, Experiment 1 (18-03-10), OligoCF-5/20 +6% G",256^† μg/ml
same,MIC,"[4]; Table 6, V23, Experiment 1 (18-03-10), OligoCF-5/20 +10% G",128^† μg/ml
same,MIC,"[4]; Table 6, V23, Experiment 2 (18-03-10), OligoCF-5/20 +2% G",>256 µg/mL
same,MIC,"[4]; Table 6, V23, Experiment 2 (18-03-10), OligoCF-5/20 +6% G",256^† μg/ml
same,MIC,"[4]; Table 6, V23, Experiment 2 (18-03-10), OligoCF-5/20 +10% G",128^† μg/ml
same,MIC,"[4]; Table 6, V23, Experiment 3 (19-03-10), OligoCF-5/20 +2% G",256^† μg/ml
same,MIC,"[4]; Table 6, V23, Experiment 3 (19-03-10), OligoCF-5/20 +6% G",256^† μg/ml
same,MIC,"[4]; Table 6, V23, Experiment 3 (19-03-10), OligoCF-5/20 +10% G",256^† μg/ml
same,MIC,[5]; [10],1 µg/mL
same,MIC,[5]; [11],1 µg/mL
same,MIC,[5]; [12],1 µg/mL
same,MIC,[5]; [13],1 µg/mL
same,MIC,[5]; [14],2 µg/mL
same,MIC,[5]; [15],2 µg/mL
same,MIC,[5]; [16],2 µg/mL
same,MIC,[5]; [17],2 µg/mL
same,MIC,[5]; [18],512 µg/mL
same,MIC,[5]; [19],512 µg/mL
same,MIC,[5]; [20],512 µg/mL
same,MIC,[5]; [21],1020 µg/mL
same,MIC,MDR Providencia stuartii; G-block (OligoCF-5/20) 0%,128 µg/mL
same,MIC,MDR Providencia stuartii; G-block (OligoCF-5/20) 2%,128 µg/mL
same,MIC,MDR Providencia stuartii; G-block (OligoCF-5/20) 6%,128 µg/mL
same,MIC,MDR Providencia stuartii; G-block (OligoCF-5/20) 10%,128 µg/mL
same,MIC,[6]; G-block (OligoCF-5/20) 0%,0.5 µg/mL
same,MIC,[6]; G-block (OligoCF-5/20) 2%,0.5 µg/mL
same,MIC,[6]; G-block (OligoCF-5/20) 6%,0.5 µg/mL
same,MIC,[6]; G-block (OligoCF-5/20) 10%,0.25 µg/mL
same,MIC,[7]; G-block (OligoCF-5/20) 0%,2 µg/mL
same,MIC,[7]; G-block (OligoCF-5/20) 2%,2 µg/mL
same,MIC,[7]; G-block (OligoCF-5/20) 6%,1 µg/mL
same,MIC,[7]; G-block (OligoCF-5/20) 10%,0.5 µg/mL
same,MIC,Streptococcus oralis; G-block (OligoCF-5/20) 0%,< 0.25 µg/mL
same,MIC,Streptococcus oralis; G-block (OligoCF-5/20) 2%,< 0.25 µg/mL
same,MIC,Streptococcus oralis; G-block (OligoCF-5/20) 6%,0.5 µg/mL
same,MIC,Streptococcus oralis; G-block (OligoCF-5/20) 10%,< 0.25 µg/mL
same,MIC,[8]; [22],128 µg/mL
same,MIC,[8]; [23],128 µg/mL
same,MIC,[8]; [24],64 µg/mL
same,MIC,[8]; [25],64 µg/mL
same,MIC,[9]; [26],2 µg/mL
same,MIC,[9]; [27],2 µg/mL
same,MIC,[9]; [28],2 µg/mL
same,MIC,[9]; [29],1 µg/mL
CC[C@H]1OC(=O)[C@H](C)[C@@H](O[C@H]2C[C@@](C)(OC)[C@@H](O)[C@H](C)O2)[C@H](C)[C@@H](O[C@@H]2O[C@H](C)C[C@H](N(C)C)[C@H]2O)[C@](C)(O)C[C@@H](C)/C(=N\OCOCCOC)[C@H](C)[C@@H](O)[C@]1(C)O [Roxithromycin],MIC,[5]; [10],256 µg/mL
same,MIC,[5]; [11],512 µg/mL
same,MIC,[5]; [12],512 µg/mL
same,MIC,[5]; [13],512 µg/mL
same,MIC,[5]; [14],1020 µg/mL
same,MIC,[5]; [15],> 1020 µg/mL
same,MIC,[5]; [16],1020 µg/mL
same,MIC,[5]; [17],> 1020 µg/mL
same,MIC,[5]; [18],512 µg/mL
same,MIC,[5]; [19],256 µg/mL
same,MIC,[5]; [20],> 1020 µg/mL
same,MIC,[5]; [21],> 1020 µg/mL
same,MIC,MDR Providencia stuartii; G-block (OligoCF-5/20) 0%,64 µg/mL
same,MIC,MDR Providencia stuartii; G-block (OligoCF-5/20) 2%,32 µg/mL
same,MIC,MDR Providencia stuartii; G-block (OligoCF-5/20) 6%,32 µg/mL
same,MIC,MDR Providencia stuartii; G-block (OligoCF-5/20) 10%,32 µg/mL
same,MIC,[6]; G-block (OligoCF-5/20) 0%,512 µg/mL
same,MIC,[6]; G-block (OligoCF-5/20) 2%,128 µg/mL
same,MIC,[6]; G-block (OligoCF-5/20) 6%,256 µg/mL
same,MIC,[6]; G-block (OligoCF-5/20) 10%,512 µg/mL
same,MIC,[7]; G-block (OligoCF-5/20) 0%,> 1020 µg/mL
same,MIC,[7]; G-block (OligoCF-5/20) 2%,1020 µg/mL
same,MIC,[7]; G-block (OligoCF-5/20) 6%,512 µg/mL
same,MIC,[7]; G-block (OligoCF-5/20) 10%,256 µg/mL
same,MIC,Streptococcus oralis; G-block (OligoCF-5/20) 0%,8 µg/mL
same,MIC,Streptococcus oralis; G-block (OligoCF-5/20) 2%,8 µg/mL
same,MIC,Streptococcus oralis; G-block (OligoCF-5/20) 6%,0.0312 µg/mL
same,MIC,Streptococcus oralis; G-block (OligoCF-5/20) 10%,16 µg/mL
same,MIC,[8]; [22],512 µg/mL
same,MIC,[8]; [23],512 µg/mL
same,MIC,[8]; [24],256 µg/mL
same,MIC,[8]; [25],64 µg/mL
same,MIC,[9]; [26],128 µg/mL
same,MIC,[9]; [27],32 µg/mL
same,MIC,[9]; [28],16 µg/mL
same,MIC,[9]; [29],16 µg/mL
